Measured values: patent US8642622B2, “Piperidinyl compound as a modulator of chemokine receptor activity” (Bristol-Myers Squibb Company, priority 2010, dated 2014)
Read-outs that look alike come from different tables or passages of the source.

Key:
[1] = biological target: T1, Human PXR (Homo sapiens, UniProt O75469); assay: PXR transactivation assay (HepG2, CYP3A-Luc reporter); format: cell-based; settings: reported as EC60
T1 construct: expressed in transfected cells; host or cells: HepG2
T1 sequence (O75469 1-434): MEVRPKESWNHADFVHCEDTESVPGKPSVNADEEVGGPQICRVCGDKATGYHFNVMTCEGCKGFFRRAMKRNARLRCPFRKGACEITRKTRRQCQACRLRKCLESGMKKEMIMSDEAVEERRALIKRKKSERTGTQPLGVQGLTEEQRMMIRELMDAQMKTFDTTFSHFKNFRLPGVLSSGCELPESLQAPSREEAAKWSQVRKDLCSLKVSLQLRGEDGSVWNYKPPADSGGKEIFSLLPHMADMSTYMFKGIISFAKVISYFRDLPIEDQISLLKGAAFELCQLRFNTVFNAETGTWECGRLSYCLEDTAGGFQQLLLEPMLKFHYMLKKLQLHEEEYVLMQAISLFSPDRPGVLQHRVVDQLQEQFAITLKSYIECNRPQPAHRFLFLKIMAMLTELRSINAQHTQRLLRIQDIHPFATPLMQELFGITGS
Description: The cell culture medium used is DMEM. […] Charcoal/dextran treated fetal bovine serum (FBS) was purchased from Hyclone (Logan, Utah). HepG2 cells were obtained from ATCC (Manassas, Va.). Human PXR-pcDNA3 and luciferase reporter containing CYP3A4 promoter, CYP3A-Luc, were generated at Bristol-Myers Squibb. White tissue culture (TC)-surface 384-well plates were purchased from Perkin Elmer (Boston, Mass.). Luciferase substrate (Steady-Glo) was purchased from Promega (Madison, Wis.). Control compounds rifampicin, mifepristone, and sulfinpyrazone were purchased from Sigma (St. Louis, Mo.).
Culture of HepG2 cells is performed in T175 flasks using DMEM containing 10% FBS. The transfection mixture contains 1 μg/mL of PXR-pcDNA3 plasmid DNA, 20 μg/ml of Cyp3A-Luc plasmid DNA, 90 μL/mL of Lipofectamine 2000, and serum-free medium. After incubating at room temperature for 20 minutes, the transfection mixture (1 ml per flask) is applied to the cells in fresh medium (20 mL per flask), and flasks incubated at 37° C. (5% CO2) overnight.
The flasks are then tapped vigorously to break up cell aggregates. After the addition of 8 mL of DMEM containing 5% charcoal/dextran-treated FBS, the entire mixture is transferred to conical tubes. Cells are then centrifuged at 1000 rpm for 5 minutes. Cell pellets are resuspended to a final count of ˜7×10^6 cells/mL in freezing media (DMEM containing 20% serum and 10% DMSO). The cell suspension is aliquoted into 15-mL polypropylene tubes, 5 mL per tube. Cells are slowly frozen by placing in a Styrofoam-insulated container at −80° C. overnight. Vials are transferred to an Ultracold (−140° C.) freezer after 24 hours for long-term storage.
Vials of cryopreserved cells are thawed rapidly in a warm water bath for five minutes. Cells are pooled and diluted to 50 mL in a 50-mL conical vial. The thawed cells are centrifuged at 1500 rpm for 5 minutes to collect the cells and the supernatant discarded. Cells are then resuspended in fresh Media II (DMEM containing 5% charcoal/dextran-treated FBS, 1% Penicillin/Streptomycin, 100 μM Non-essential Amino Acids, 1 mM Sodium Pyruvate, and 2 mM L-Glutamine), counted using the Guava Cell Counter, and diluted to 1.6×10^5 cells/ml in the same media.
Fifty microliters of cell mixture is added to wells in columns 1-23 of white tissue-culture treated 384-well plates containing 0.25 μL of test compound dissolved in 100% DMSO. Fifty microliters of Media II is added to wells in column 24. The plates are incubated at 37° C. (5% CO2) for 24 hours, then 5 μL of Alamar Blue reagent (Trek Diagnostics, Cat #00-100) is added to each well. Plates are then incubated an additional two hours at 37° C., 5% CO2 and then one hour at room temperature. […] After the fluorescence is measured, 25 μL of luciferase substrate (Steady-Glo, Promega) is added to each well. The plates are incubated for fifteen minutes at room temperature, after which the luminescence is read on a PheraStar (BMG Labtech) plate reader.
Rifampicin (10 μM), a well-known agonist of PXR, is included in each plate as an internal standard and positive control. The data is then expressed as percent control (% CTRL), where the control signal is the signal from the 10 μM rifampicin and the blank signal is that from the DMSO vehicle. % CTRL=((Compound signal−Blank signal)/(Control signal−Blank signal))*100
The EC50 is defined as the concentration corresponding to half of the maximal response derived from the fitted 20-point curve as determined using a four-parameter logistic regression model. Additionally, compounds may also be reported as EC20 or EC60.

[2] = Human liver microsomal metabolism, Assay Conditions A; format: in vitro ADME; settings: 0.5 μM compound, 10 minutes, 37° C.
Experimental: Test compound is received as a 3.5 mM stock solution in 100 percent DMSO. Compound is diluted to create a 50 μM acetonitrile (ACN) solution containing 1.4% DMSO, which is then used as a 100× stock for incubation with microsomes. Each compound is tested in duplicate separately in each of three species in the Metabolic Stability-Human, Rat, and Mouse assay suite or as individual species in the Metabolic Stability-Dog or Metabolic Stability-Monkey suites. Compound, NADPH and liver microsome solutions are combined for incubation in three steps:
152 μL of liver microsome suspension, protein concentration of 1.1 mg/mL in 100 mM NaPi, pH 7.4, 6.6 mM MgCl2 buffer, is pre-warmed at 37° C.
• 1) 1.7 μL of 50 μM compound (98.6% ACN, 1.4% DMSO) is added to the same tube and pre-incubated at 37° C. for 5 minutes. • 2) The reaction is initiated by the addition of 17 μL of pre-warmed 10 mM NADPH solution in 100 mM NaPi, pH 7.4. • 3) Reaction components are mixed well, and 75 μL are immediately transferred into 150 μl quench/stop solution (zero-time point, To). Reactions are incubated at 37° C. for 10 minutes and then an additional 75 μL aliquot is transferred into 150 μL quench solution. Acetonitrile containing 100 μM DMN (a UV standard for injection quality control), is used as the quench solution to terminate metabolic reactions. • 4) Quenched mixtures are centrifuged at 1500 rpm (˜500×g) in an Allegra X-12 centrifuge, SX4750 rotor (Beckman Coulter Inc., Fullerton, Calif.) for fifteen minutes to pellet denatured microsomes. A volume of 90 μL of supernatant extract, containing the mixture of parent compound and its metabolites, is then transferred to a separate 96-well plate for UV-LC/MS-MS analysis to determine the percent of parent compound that is remaining in the mixture.

[3] = biological target: T2, human cardiac sodium channel, SCNSA (Homo sapiens, UniProt Q14524); assay: Sodium channel whole-cell patch-clamp assay; format: cell-based; settings: HEK293, HEK-293, protein-free buffer, read-out: Na channel, % inh
T2 construct: expressed in transfected cells; host or cells: HEK-293
T2 sequence (Q14524 whole entry): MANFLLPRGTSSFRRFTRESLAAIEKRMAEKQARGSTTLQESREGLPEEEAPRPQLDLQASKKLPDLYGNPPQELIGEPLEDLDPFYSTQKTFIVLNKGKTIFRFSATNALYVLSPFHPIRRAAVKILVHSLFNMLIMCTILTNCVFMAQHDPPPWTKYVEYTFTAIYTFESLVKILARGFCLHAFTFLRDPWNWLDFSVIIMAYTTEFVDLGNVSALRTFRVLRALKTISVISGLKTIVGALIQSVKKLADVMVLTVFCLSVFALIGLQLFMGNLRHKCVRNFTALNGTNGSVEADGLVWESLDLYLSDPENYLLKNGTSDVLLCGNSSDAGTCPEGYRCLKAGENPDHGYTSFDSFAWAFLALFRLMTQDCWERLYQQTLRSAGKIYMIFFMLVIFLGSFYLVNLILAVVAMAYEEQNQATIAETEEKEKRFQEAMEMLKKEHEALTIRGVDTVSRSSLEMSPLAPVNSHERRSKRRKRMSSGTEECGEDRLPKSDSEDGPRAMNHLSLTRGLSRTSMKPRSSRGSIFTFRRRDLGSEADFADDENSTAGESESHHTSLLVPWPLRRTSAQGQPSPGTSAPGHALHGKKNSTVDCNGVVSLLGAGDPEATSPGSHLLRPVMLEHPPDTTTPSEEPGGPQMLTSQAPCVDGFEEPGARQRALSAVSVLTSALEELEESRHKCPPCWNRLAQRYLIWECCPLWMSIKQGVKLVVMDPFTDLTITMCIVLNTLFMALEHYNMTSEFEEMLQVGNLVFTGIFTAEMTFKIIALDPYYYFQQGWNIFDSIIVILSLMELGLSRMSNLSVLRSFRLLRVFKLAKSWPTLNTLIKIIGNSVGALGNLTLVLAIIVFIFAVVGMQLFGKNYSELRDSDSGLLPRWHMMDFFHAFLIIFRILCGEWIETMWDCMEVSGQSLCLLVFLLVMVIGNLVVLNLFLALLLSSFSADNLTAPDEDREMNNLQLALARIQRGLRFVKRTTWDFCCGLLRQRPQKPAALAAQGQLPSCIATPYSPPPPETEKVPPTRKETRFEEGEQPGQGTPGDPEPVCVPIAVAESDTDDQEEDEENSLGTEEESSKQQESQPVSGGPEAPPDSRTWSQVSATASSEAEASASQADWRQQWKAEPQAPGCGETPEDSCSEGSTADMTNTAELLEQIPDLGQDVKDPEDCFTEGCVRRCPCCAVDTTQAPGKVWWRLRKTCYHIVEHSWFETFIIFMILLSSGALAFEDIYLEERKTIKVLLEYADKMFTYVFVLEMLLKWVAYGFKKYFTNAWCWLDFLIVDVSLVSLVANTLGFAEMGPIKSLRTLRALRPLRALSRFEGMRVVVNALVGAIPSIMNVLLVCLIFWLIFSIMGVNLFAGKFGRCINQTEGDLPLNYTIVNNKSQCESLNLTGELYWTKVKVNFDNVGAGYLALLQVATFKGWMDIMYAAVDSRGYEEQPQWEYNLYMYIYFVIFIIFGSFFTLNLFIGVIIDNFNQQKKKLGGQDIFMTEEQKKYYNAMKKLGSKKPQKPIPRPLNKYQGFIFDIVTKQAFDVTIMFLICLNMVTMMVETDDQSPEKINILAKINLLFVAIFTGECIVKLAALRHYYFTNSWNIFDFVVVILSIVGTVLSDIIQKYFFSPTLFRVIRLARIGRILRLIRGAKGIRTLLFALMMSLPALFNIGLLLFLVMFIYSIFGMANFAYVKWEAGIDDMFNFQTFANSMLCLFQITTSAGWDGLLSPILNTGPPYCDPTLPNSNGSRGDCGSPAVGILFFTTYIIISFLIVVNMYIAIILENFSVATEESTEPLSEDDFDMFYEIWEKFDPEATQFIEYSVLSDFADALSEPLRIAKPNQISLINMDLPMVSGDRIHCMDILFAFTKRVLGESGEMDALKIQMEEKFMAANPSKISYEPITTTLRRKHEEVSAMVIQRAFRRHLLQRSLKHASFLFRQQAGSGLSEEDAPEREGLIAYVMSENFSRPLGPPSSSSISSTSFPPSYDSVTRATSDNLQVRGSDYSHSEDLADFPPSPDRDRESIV
Experimental: Whole-cell patch-clamp was used to directly measure inward sodium currents in HEK-293 cells expressing the human cardiac sodium channel, SCNSA. After reach steady-state effect in the presence of drug, rate-dependence was assessed by stimulation at frequencies of 1 Hz and 4 Hz. Experiments were carried out using an aqueous buffer at pH 7.4 and at room temperature. There is no protein in the buffer and drug concentrations reported are nominal free drug levels. Test article was evaluated up to 10 μM (protein-free buffer). […] Data is reported as percent inhibition at a fixed concentration.

[4] = Electrocardiography in anesthetized rabbits (rabbit in vivo EP effect)
Experimental: A dose-response study of test compound was conducted in anesthetized rabbits to assess the cardiac electrophysiologic profile established in the cellular ion channel assays.
Experiments were performed in propofol-fentanyl anesthetized closed-chest male rabbits. A body surface electrocardiogram (ECG) and an intra-cardiac His-bundle electrogram were continuously monitored and recorded during the studies, using a PoNeMah system and a Prucka electrophysiological recording system, respectively. Test compound was prepared on the day of study in a vehicle of PEG400:ethanol:water (1:1:1) at a dosing concentration of 30 mg/mL. Test compound (n=3) or vehicle (n=3) was given intravenously over 5 minutes via an infusion pump at incremental doses of 3, 10 and 30 mg/kg. The interval between doses was 10 minutes, allowing for a 5-minute test agent infusion and a 5-minute rest period. Blood was sampled at baseline (pre-drug infusion) and immediately at the end of each infusion. For the 30 mg/kg dose, additional blood samples were taken at 10, 20 and 30 minutes after the end of infusion.
PR interval, QRS duration and QT interval were averaged from a 1 minute ECG recording period at time of blood sampling. QT interval was corrected for heart rate effects using both Fridericia (QTcf) and Van der Water (QTcv) formulae. AH and HV intervals, representing A-V node conduction and His-Purkinje conduction, respectively, were assessed by manual measurements from the His-bundle electrogram. Data were expressed as percent change from pre-drug baseline (mean±SEM) for PR, QRS, AH and HV intervals as well as delta change from the pre-drug infusion baseline (mean±SEM) for QTc intervals. Changes of 10% in PR, QRS, and AH intervals, and 20% in HV interval, as well as >10 ms in QTc interval are considered significant based on experience with the model.

[5] = Single-dose pharmacokinetics in rats; format: in vivo; settings: for clearance / bioavailability: male, Sprague-Dawley, rat, plasma; for clearance: intravenous; for bioavailability: po
Experimental: Serial blood samples were collected for all studies from the jugular vein at various time points post dose (0.17 (or 0.25 for oral), 0.5, 0.75, 1, 2, 4, 6, 8 and 24 h, for example). Plasma samples were analyzed by LC-MS/MS.
Additional studies evaluating suspensions of crystalline drug substance in aqueous medium were performed as described above.

[6] = Single-dose pharmacokinetics in dogs; format: in vivo
Experimental: Serial blood samples were collected for all studies at various time points post dose (0.17 (or 0.25 for oral), 0.5, 0.75, 1, 2, 4, 6, 8 and 24 h, for example). Plasma samples were analyzed by LC-MS/MS.

[7] = Human liver microsomal metabolism, Assay Conditions B; format: in vitro ADME; settings: 3 μM compound, 10 minutes, 37° C.
Experimental: Test compound is received as 20 mM in DMSO. Compound is diluted to create a 300 μM acetonitrile (ACN) solution containing 1.5% DMSO, which is then used as a 100× stock for incubation with microsomes. Each compound is tested in duplicate separately in each of three species in the Metabolic Stability-Human, Rat, Mouse assay suite or individual species in the Metabolic Stability-Dog or Metabolic Stability-Monkey suites. Compound, NADPH and liver microsome solutions are combined for incubation in three steps: • 1. 450 μL of liver microsome suspension, protein concentration of 1 mg/mL in 100 mM NaPi, pH 7.4, 6.6 mM MgCl2 buffer, are pre-warmed at 37° C. • 2. […] of 300 μM compound (98.5% CAN, 1.5% DMSO) is added to the same tube. • 3. The reaction is initiated by the addition of 50 μL of pre-warmed 5 mM NADPH solution in 100 mM NaPi, pH 7.4.
Reaction components are mixed well and 150 μL removed to quench/stop solution immediately for the zero-minute time point. Reactions are incubated at 37° C. for 10 minutes and then an additional 150 μL removed from incubation. Aliquots removed are combined with 300 μL ACN which contains 100 μM DMN as a UV standard for detection.
Quenched mixtures are centrifuged at 1500 rpm (˜500×g) in an Allegra X-12 centrifuge, SX4750 rotor (Beckman Coulter Inc., Fullerton, Calif.) for fifteen minutes to pellet denatured microsomes. A volume of 110 μl of supernatant extract, containing the mixture of parent compound and its metabolites, is then transferred to a separate 96-well plate for UV-LC/MS-MS analysis to determine the percent of parent compound that is remaining in the mixture.

[8] = oral solution, read-out: Rat oral bioavailability when dosed as solution

Row | Structure (SMILES) | PXR EC60 [1] | Human Liver Microsomal Metabolism % remaining (Assay Conditions A) [2] | clearance [5] [mL/min/kg] | Human Liver Microsomal Metabolism % remaining (Assay Conditions B) [7] | further results
1 | CC(C)[C@@H](NC(=O)[C@@H]1CC[C@@H](O)C1)C(=O)N1CC[C@](O)(c2ccc(Cl)cc2)C(C)(C)C1 [Example 572] | – | – | 29 | – | inhibition at 10 µM [3]: 25%; Cmax: Free drug (at NOEL dose) ([4]; at NOEL dose, free drug): < 6.3 µM; Cmax: Free drug (at QT effect dose) ([4]; at QT effect dose, free drug): 6.3 µM; QT effect Dose ([4]; i.v. infusion 3, 10, 30 mg/kg): 10 mg/kg; QTcf, delta ([4]; i.v. infusion, change from pre-drug baseline): +22 ms; bioavailability ([5]; crystalline suspension in aqueous medium, read-out: Relative bioavailability when dosed as a crystalline suspension): > 90%; Rat oral bioavailability when dosed as solution ([5]; oral solution): 37%; clearance ([6]; male, beagle, dog, plasma, intravenous): 4.9 mL/min/kg; dog oral bioavailability when dosed as solution ([6]; oral solution): 72
2 | CC(C)[C@@H](NC(=O)C1CCCC1)C(=O)N1CC[C@](O)(c2ccc(Cl)cc2)C(C)(C)C1 [Example 460] | – | 47% | 10 | 16% | bioavailability [5, 8]: 8%
3 | CC(C)[C@@H](NC(=O)c1cccc(C(=O)O)c1)C(=O)N1CC[C@](O)(c2ccc(Cl)cc2)C(C)(C)C1 [Example 463] | – | – | 75 | – | bioavailability [5, 8]: 9%
4 | CC[C@@H](C)NC(=O)N[C@@H](C(=O)N1CC[C@](O)(c2ccc(Cl)cc2)C(C)(C)C1)C(C)C [Example 897] | >50 (EC60) μM | 59% (A) | – | – | –

Further lines, with some results ahead:

Row | PXR EC60 [1] | Human Liver Microsomal Metabolism % remaining (Assay Conditions A) [2] | clearance [5] [mL/min/kg] | Human Liver Microsomal Metabolism % remaining (Assay Conditions B) [7] | Structure (SMILES) | further results
5 | 10.2 (EC60) μM | 99% (A) | – | – | CC(C)NC(=O)N[C@@H](C(=O)N1CC[C@](O)(c2ccc(Cl)cc2)C(C)(C)C1)C(C)C [Example 850] | –
6 | 1.12 (EC60) μM | 67% | – | 33% | CC(C)CC(=O)N[C@@H](C(=O)N1CC[C@](O)(c2ccc(Cl)cc2)C(C)(C)C1)C(C)C [Example 466] | –
7 | – | 100% (A)/100% (B) | – | 100% (A)/100% (B) | CC(C)[C@@H](NC(=O)CC(C)(C)O)C(=O)N1CC[C@](O)(c2ccc(Cl)cc2)C(C)(C)C1 [Example 1356] | –
